From patent US11987564B2, “PTPRD inhibitors and uses thereof” (United States Government as represented by the Department …, priority 2021, dated 2024)
Where two headings read alike, the source gives them in different places.

Tests used:
PTPN1 (PTP1B) = target: T1, PTPN1 (PTP1B) (Homo sapiens, UniProt P18031); assay: pNPP hydrolysis by PTPN1 (PTP1B) phosphatase; format: biochemical; conditions: untitled table after Table 4; mean, SEM in wrapped line
T1 construct: purchased
T1 sequence (P18031 1-435): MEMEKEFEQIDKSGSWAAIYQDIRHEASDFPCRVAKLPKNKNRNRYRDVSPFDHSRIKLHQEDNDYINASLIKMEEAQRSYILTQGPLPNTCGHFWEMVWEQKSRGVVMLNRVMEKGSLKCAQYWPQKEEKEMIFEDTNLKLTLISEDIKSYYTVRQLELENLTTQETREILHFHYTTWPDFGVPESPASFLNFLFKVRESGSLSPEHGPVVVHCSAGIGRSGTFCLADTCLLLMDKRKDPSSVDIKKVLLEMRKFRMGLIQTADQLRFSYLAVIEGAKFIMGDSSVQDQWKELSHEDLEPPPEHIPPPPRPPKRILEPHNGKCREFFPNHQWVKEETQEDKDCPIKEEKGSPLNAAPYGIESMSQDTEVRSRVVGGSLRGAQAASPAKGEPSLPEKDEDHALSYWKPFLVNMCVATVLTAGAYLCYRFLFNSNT

PTPRJ = target: T2, PTPRJ (Homo sapiens, UniProt Q12913); assay: pNPP hydrolysis by PTPRJ phosphatase; format: biochemical
T2 construct: purchased
T2 sequence (Q12913 36-1337): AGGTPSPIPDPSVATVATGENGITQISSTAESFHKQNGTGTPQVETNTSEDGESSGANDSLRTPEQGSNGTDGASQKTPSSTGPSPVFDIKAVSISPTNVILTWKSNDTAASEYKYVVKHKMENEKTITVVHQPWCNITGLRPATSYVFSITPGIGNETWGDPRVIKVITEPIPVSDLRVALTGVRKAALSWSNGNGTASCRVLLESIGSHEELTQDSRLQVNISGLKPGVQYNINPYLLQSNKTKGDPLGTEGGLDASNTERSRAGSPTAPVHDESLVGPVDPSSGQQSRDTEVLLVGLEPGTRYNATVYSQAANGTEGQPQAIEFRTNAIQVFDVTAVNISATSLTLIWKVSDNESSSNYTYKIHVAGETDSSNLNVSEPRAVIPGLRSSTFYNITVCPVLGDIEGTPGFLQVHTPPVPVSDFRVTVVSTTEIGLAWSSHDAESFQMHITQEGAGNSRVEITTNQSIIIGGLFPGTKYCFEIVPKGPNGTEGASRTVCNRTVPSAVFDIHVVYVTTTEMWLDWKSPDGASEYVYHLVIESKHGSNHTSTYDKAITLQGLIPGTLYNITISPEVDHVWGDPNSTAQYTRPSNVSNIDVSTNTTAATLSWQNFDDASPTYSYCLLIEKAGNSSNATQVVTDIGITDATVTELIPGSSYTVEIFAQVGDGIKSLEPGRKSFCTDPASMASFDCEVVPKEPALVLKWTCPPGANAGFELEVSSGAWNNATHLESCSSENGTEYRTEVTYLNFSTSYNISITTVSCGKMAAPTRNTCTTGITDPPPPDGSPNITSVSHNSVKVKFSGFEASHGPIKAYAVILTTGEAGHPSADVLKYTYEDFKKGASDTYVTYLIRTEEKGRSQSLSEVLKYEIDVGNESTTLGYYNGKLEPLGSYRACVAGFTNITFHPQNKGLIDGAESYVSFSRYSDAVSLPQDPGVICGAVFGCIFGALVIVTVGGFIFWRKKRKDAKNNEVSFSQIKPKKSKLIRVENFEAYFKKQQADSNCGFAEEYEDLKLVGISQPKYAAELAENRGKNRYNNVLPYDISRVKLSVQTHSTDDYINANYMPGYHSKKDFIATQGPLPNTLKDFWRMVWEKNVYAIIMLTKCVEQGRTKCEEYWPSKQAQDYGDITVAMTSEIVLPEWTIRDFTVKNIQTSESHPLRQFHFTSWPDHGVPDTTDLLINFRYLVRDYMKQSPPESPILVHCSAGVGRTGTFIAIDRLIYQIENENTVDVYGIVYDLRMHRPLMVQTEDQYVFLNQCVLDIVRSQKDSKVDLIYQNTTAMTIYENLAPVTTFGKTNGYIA
Description: (§1) Human […] ([…]-pY-[…]) phosphopeptide (Pierce/ThermoFisher) were synthesized.

PTPRS = PTPRS (Homo sapiens, UniProt Q13332); assay: pNPP hydrolysis by recombinant PTPRS phosphatase; format: biochemical
Description: as §1

recombinant PTPRD = recombinant PTPRD (Homo sapiens, UniProt P23468); assay: pNPP hydrolysis by recombinant PTPRD phosphatase
Description: (§2) Phosphatase assays: Data for each assay type (3 wells/experimental condition, read using a Spectromax plate reader) was plotted vs time, and results derived from the slopes of linear regions were reported from triplicate independent experiments.
(§3) For assays of compound ligands that were likely pseudo-irreversible, 18 min preincubations were also added. For work determining the effect of flavonoids on pNPP hydrolysis, a 96 well half-area plate was prepared by first filling each well to be tested with 18 μL of 50 μM pNPP and 25 uL of running buffer, and 2 μL of DMSO containing the desired concentration of flavonoid and/or peptide. PTPRD phosphatase was diluted 1:50 in a dilution buffer.

PTPRF = PTPRF (Homo sapiens, UniProt P10586); assay: pNPP hydrolysis by recombinant PTPRF phosphatase
Description: as §2, §3

[1] = Table 4, mean (SEM) of three independent experiments, * = instability, no valid triplicate
[2] = untitled table after Table 4, mean, SEM in wrapped line
[3] = PTPRD IC50, Table 4, mean (SEM) of three independent experiments, * = instability, no valid triplicate
[4] = PTPRD IC50, untitled table after Table 4, mean, SEM in wrapped line, compounds with PTPRD IC50 <5 μM
[5] = PTPRF IC50, Table 4, mean (SEM) of three independent experiments, * = instability, no valid triplicate
[6] = PTPRF IC50, untitled table after Table 4, mean, SEM in wrapped line

Sequence of PTPRF (P10586 30-1907, species assumed): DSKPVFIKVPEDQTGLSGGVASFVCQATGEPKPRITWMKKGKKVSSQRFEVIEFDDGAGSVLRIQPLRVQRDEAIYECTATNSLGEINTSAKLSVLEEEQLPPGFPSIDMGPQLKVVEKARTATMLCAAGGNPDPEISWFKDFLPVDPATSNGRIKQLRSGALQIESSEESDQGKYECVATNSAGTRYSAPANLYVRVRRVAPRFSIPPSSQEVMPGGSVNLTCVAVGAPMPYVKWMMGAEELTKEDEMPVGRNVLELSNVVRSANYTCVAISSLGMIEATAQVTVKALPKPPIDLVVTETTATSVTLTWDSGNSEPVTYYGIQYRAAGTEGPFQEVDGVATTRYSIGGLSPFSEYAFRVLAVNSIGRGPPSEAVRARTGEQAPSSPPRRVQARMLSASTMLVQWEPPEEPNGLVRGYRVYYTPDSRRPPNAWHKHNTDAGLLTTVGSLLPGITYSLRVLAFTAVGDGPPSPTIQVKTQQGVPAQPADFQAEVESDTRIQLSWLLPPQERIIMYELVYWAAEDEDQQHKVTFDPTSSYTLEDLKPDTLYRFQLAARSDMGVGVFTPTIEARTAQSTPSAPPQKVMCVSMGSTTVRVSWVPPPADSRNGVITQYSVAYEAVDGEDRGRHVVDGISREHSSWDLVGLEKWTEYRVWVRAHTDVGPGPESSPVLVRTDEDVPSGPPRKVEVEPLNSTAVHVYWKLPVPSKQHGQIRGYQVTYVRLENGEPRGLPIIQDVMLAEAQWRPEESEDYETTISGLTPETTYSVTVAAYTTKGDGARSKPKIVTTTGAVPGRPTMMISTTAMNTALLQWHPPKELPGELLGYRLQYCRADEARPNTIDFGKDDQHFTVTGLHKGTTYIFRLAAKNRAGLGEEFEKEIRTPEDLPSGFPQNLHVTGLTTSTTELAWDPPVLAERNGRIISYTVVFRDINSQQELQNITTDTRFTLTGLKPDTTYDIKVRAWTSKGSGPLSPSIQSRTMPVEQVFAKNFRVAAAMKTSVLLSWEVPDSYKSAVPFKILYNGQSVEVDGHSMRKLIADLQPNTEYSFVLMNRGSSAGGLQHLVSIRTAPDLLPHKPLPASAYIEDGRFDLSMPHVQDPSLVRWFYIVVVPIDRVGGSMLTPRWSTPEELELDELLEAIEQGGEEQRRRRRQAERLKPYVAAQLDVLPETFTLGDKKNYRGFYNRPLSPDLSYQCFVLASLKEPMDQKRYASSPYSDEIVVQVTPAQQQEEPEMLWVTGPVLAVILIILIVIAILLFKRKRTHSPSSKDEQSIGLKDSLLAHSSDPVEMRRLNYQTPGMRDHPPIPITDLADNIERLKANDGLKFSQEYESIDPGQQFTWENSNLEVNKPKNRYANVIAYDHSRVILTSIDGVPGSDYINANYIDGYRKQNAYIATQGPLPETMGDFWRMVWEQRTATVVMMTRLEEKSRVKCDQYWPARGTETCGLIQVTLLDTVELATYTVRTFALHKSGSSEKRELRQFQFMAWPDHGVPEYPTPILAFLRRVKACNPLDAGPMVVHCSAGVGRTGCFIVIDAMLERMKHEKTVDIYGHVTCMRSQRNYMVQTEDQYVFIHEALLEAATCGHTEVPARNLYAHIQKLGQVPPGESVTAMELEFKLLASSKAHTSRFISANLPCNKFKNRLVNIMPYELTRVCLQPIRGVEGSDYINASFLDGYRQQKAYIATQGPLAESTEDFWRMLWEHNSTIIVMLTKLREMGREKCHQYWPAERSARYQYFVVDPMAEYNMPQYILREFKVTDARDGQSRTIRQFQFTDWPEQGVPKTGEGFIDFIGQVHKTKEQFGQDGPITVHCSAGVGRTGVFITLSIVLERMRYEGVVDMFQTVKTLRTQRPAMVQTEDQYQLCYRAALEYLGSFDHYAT
Sequence of recombinant PTPRD (P23468 21-1912): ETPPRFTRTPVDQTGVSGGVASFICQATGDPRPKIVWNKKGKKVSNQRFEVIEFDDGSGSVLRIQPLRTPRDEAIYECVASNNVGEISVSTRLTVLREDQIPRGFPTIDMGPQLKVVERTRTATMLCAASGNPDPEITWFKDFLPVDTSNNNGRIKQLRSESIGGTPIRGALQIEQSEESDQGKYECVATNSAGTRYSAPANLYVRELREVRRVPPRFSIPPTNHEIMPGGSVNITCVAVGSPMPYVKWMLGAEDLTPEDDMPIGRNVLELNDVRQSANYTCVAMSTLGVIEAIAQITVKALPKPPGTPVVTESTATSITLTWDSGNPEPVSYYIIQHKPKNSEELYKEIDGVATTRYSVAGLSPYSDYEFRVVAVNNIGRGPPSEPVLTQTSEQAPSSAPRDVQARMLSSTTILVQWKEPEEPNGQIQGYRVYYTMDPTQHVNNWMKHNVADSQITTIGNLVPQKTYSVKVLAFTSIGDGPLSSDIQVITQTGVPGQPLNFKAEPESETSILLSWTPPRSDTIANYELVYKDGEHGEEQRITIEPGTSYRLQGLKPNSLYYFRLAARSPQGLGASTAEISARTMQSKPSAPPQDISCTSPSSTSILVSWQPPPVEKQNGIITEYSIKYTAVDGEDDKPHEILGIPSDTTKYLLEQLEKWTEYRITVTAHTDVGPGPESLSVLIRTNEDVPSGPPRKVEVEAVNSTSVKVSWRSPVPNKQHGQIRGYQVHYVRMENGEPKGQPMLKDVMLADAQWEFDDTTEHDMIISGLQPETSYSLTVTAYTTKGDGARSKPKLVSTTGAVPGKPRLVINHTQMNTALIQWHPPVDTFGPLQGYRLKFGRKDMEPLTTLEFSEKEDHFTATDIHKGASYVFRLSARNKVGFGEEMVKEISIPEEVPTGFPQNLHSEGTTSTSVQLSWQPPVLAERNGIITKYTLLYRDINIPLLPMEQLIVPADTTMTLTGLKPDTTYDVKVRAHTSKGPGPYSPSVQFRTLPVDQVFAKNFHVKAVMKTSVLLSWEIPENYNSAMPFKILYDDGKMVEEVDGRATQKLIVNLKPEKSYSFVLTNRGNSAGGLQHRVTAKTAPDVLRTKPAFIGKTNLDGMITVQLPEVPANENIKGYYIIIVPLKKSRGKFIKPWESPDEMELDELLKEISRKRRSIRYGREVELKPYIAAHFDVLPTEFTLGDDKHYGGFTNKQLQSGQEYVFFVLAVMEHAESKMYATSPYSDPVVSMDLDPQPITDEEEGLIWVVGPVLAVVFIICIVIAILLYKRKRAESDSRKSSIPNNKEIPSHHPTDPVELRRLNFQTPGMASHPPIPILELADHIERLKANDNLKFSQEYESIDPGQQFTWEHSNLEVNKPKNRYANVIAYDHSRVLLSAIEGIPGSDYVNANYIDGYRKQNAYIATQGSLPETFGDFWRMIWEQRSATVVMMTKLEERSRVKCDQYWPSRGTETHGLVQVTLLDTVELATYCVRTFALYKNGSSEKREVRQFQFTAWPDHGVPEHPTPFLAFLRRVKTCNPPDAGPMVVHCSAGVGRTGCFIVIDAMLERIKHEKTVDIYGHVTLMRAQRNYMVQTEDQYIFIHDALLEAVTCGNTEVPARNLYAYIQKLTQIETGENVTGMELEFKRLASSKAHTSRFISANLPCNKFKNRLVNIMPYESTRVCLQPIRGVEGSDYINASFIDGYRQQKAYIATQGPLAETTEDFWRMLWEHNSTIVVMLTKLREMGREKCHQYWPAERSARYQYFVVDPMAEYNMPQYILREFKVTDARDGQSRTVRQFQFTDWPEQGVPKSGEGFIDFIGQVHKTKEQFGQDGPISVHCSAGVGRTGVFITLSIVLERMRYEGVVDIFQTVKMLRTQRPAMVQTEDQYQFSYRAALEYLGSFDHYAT

| SMILES | IC50 (PTPN1 (PTP1B)) | IC50 (PTPRJ; [1]) | IC50 (PTPRJ; [2]) | IC50 (PTPRS; [1]) | IC50 (PTPRS; [2]) | IC50 (recombinant PTPRD; [3]) | IC50 (recombinant PTPRD; [4]) | IC50 (PTPRF; [5]) | IC50 (PTPRF; [6]) | IC50 (recombinant PTPRD; read-out: PTPRD IC50, Table 4, mean (SEM) of three independent experiments, * = instability, no valid triplicate) | IC50 (recombinant PTPRD; read-out: PTPRD IC50, untitled table after Table 4, mean, SEM in wrapped line, compounds with PTPRD IC50 <5 μM) |
| --- | --- | --- | --- | --- | --- | --- | --- | --- | --- | --- | --- |
| COc1c(OCCCCc2ccc(Cl)cc2)cc2c(c1C=O)CC(O)OC2=O (stereo not shown) [Compound 53, 7-(4-(4-Chlorophenyl)butoxy)-3-hydroxy-6-methoxy-1-oxoisochromane-5-carbaldehyde] | 65.7 µM | 28.9 µM | 28.9 µM | 3090 nM | 3090 nM |  |  | 5.67 µM | 5.67 µM |  |  |
| COc1c(OCC2CCCCCC2)cc2c(c1C=O)CC(O)OC2=O (stereo not shown) [Compound 69] | 27.1 µM | 9.81 µM | 9.8 µM | 770 nM | 770 nM |  |  | 1.16 µM | 1.16 µM |  |  |
| COc1c(OCCCCc2ccc(O)cc2O)cc2c(c1C=O)CC(O)OC2=O (stereo not shown) [Compound 55] | 320 µM | 55.5 µM | 55.5 µM | 2270 nM | 2270 nM | 4450 nM | 4450 nM | 6.8 µM | 6.8 µM |  |  |
| COc1c(OCc2ccc(Oc3ccccc3)cc2)cc2c(c1C=O)CC(O)OC2=O (stereo not shown) [Compound 43, 3-Hydroxy-6-methoxy-1-oxo-7-((4-phenoxybenzyl)oxy)isochromane-5-carbaldehyde] | 16.7 µM | 28.4 µM | 28.4 µM | 1340 nM | 1340 nM | 1600 nM | 1600 nM | 3.93 µM | 3.93 µM |  |  |
| COc1c(OCC2CCCCC2)cc2c(c1C=O)CC(O)OC2=O (stereo not shown) [Compound 68, 7-Cyclohexylmethoxy-3-hydroxy-6-methoxy-1-oxo-isochroman-5-carbaldehyde] | 101 µM |  | 0.56 µM | 1060 nM | 1060 nM |  |  | 0.76 µM | 0.76 µM |  |  |
| COc1c(OCCCC(F)(F)F)cc2c(c1C=O)CC(O)OC2=O (stereo not shown) [Compound 63, 3-Hydroxy-6-methoxy-1-oxo-7-(4,4,4-trifluorobutoxy)isochromane-5-carbaldehyde] |  |  | 108 µM |  |  |  |  |  |  |  |  |
| COc1c(OCc2ccc(Br)cc2)cc2c(c1C=O)CC(O)OC2=O (stereo not shown) [Compound 39, 7-((4-Bromobenzyl)oxy)-3-hydroxy-6-methoxy-1-oxoisochromane-5-carbaldehyde] |  | 29.9 µM | 29.9 µM | 5000 nM | 5000 nM |  |  | 3.82 µM | 3.82 µM |  |  |
| COc1c(OCCCc2ccccc2)cc2c(c1C=O)CC(O)OC2=O (stereo not shown) [Compound 52, 3-Hydroxy-6-methoxy-1-oxo-7-(3-phenylpropoxy)isochromane-5-carbaldehyde] |  |  |  | 930 nM | 930 nM |  |  | 4.41 µM | 4.41 µM |  |  |
| COc1c(OCc2ccc3ccccc3c2)cc2c(c1C=O)CC(O)OC2=O (stereo not shown) [Compound 49, 3-Hydroxy-6-methoxy-7-(naphthalen-2-ylmethoxy)-1-oxoisochromane-5-carbaldehyde] | 221 µM | 33.3 µM | 33.3 µM | 4610 nM | 4610 nM |  |  | 5.87 µM | 5.87 µM |  |  |
| COc1c(OCc2ccc(C)s2)cc2c(c1C=O)CC(O)OC2=O (stereo not shown) [Compound 46, 3-Hydroxy-6-methoxy-7-((5-methylthiophen-2-yl)methoxy)-1-oxoisochromane-5-carbaldehyde] |  | 19.8 µM | 19.8 µM | 1400 nM | 1400 nM | 920 nM | 920 nM | 3.5 µM | 3.5 µM |  |  |

The next lines start with the values.

| IC50 (PTPN1 (PTP1B)) | IC50 (PTPRJ; [1]) | IC50 (PTPRJ; [2]) | IC50 (PTPRS; [1]) | IC50 (PTPRS; [2]) | IC50 (recombinant PTPRD; [3]) | IC50 (recombinant PTPRD; [4]) | IC50 (PTPRF; [5]) | IC50 (PTPRF; [6]) | IC50 (recombinant PTPRD; read-out: PTPRD IC50, Table 4, mean (SEM) of three independent experiments, * = instability, no valid triplicate) | IC50 (recombinant PTPRD; read-out: PTPRD IC50, untitled table after Table 4, mean, SEM in wrapped line, compounds with PTPRD IC50 <5 μM) | SMILES |
| --- | --- | --- | --- | --- | --- | --- | --- | --- | --- | --- | --- |
| 219 µM | 54.8 µM | 54.8 µM | 3030 nM | 3030 nM | 4570 nM | 4570 nM |  |  |  |  | COc1c(OCCc2ccccc2)cc2c(c1C=O)CC(O)OC2=O (stereo not shown) [Compound 50, 3-Hydroxy-6-methoxy-1-oxo-7-phenethoxyisochromane-5-carbaldehyde] |
| > 100 µM | 17.8 µM | 17.8 µM | 1800 nM | 1800 nM | 3210 nM | 3210 nM | 2.46 µM | 2.46 µM |  |  | COc1c(OCC=C(C)C)cc2c(c1C=O)CC(O)OC2=O (stereo not shown) [Compound 59, 3-Hydroxy-6-methoxy-7-(3-methyl-but-2-enyloxy)-1-oxo-isochroman-5-carbaldehyde] |
| 76 µM | 14.6 µM | 14.6 µM | 1030 nM | 1030 nM |  |  | 3.55 µM | 3.55 µM |  |  | COc1c(OCc2ccc(Cl)cc2Cl)cc2c(c1C=O)CC(O)OC2=O (stereo not shown) [Compound 40, 7-((2,4-Dichlorobenzyl)oxy)-3-hydroxy-6-methoxy-1-oxoisochromane-5-carbaldehyde] |
| 24.1 µM |  | 32.7 µM | 3360 nM | 2850 nM |  | 2760 nM | 3.03 µM | 4.52 µM |  |  | COc1c(OCC2CCC2)cc2c(c1C=O)CC(O)OC2=O (stereo not shown) [Compound 65, 7-Cyclobutylmethoxy-3-hydroxy-6-methoxy-1-oxo-isochroman-5-carbaldehyde] |
| 28.9 µM | 23.6 µM | 23.6 µM | 2150 nM | 2200 nM | 2470 nM | 2500 nM |  |  |  |  | COc1c(OCc2c(Cl)cc(Cl)cc2Cl)cc2c(c1C=O)CC(O)OC2=O (stereo not shown) [Compound 42] |
|  |  |  |  |  | 2490 nM | 2490 nM |  |  |  |  | COc1c(OCc2ccc(Oc3ccc(F)cc3)cc2)cc2c(c1C=O)CC(O)OC2=O (stereo not shown) [Compound 44, 7-((4-(4-Fluorophenoxy)benzyl)oxy)-3-hydroxy-6-methoxy-1-oxoisochromane-5-carbaldehyde] |
| 215 µM | 27.4 µM | 27.4 µM | 1270 nM | 1270 nM |  |  | 3.95 µM | 3.95 µM | 2270 nM | 2270 nM | CCCCOc1cc2c(c(C=O)c1OC)CC(O)OC2=O (stereo not shown) [Compound 1, reference compound] |
| 203 µM |  | 62.8 µM | 13000 nM | 3250 nM | 4120 nM | 5640 nM |  | 5.73 µM |  |  | COc1cccc(COc2cc3c(c(C=O)c2OC)CC(O)OC3=O)c1 (stereo not shown) [Compound 31, 3-Hydroxy-6-methoxy-7-((3-methoxybenzyl)oxy)-1-oxoisochromane-5-carbaldehyde] |
|  |  |  |  |  | 4180 nM | 4180 nM |  |  |  |  | COc1c(OCC2CC2)cc2c(c1C=O)CC(O)OC2=O (stereo not shown) [Compound 64, 7-Cyclopropylmethoxy-3-hydroxy-6-methoxy-1-oxo-isochroman-5-carbaldehyde] |
